Data published in PMC9050811 (RSC Advances, 2020).
Values after ≈ are worked out from the molar mass of the structure shown. Read-outs that look alike come from different tables or passages of the source.

What was measured:
Escherichia coli = experiment: Antibacterial screening against E. coli; assay type: cell-based; conditions: read-out: E. coli IC50
Staphylococcus aureus = experiment: Antibacterial screening against S. aureus; assay type: cell-based; conditions: read-out: S. aureus IC50
[1] = system: M. tuberculosis H37Ra-lux; experiment: microbe, parasite or virus in culture; assay type: cell-based, Mycobacterium tuberculosis; conditions: for IC50: read-out: M. tuberculosis H37Ra-lux IC50; for IC90: read-out: M. tuberculosis H37Ra-lux IC90
MTB = conditions: cited from earlier work
MTB H37Rv = conditions: cited from earlier work
[2] = Mycobacterium tuberculosis, H37RA, 168 h

Compound	IC50 (Escherichia coli) [µM]	IC50 (Staphylococcus aureus; Staphylococcus aureus) [µM]	IC50 [1, 2] [µM]	further results
CCn1cc(C(=O)O)c(=O)c2cc(F)c(N3CCNCC3)cc21 [Norfloxacin, reference compound]	0.38	–	–	–
O=C(Nc1ccc(N2CCN(C(=O)c3cnccn3)CC2)nc1)c1ccc(Cl)cc1 [6d, 4-Chloro-N-(6-(4-(pyrazine-2-carbonyl)piperazin-1-yl)pyridin-3-yl)benzamide]	> 64	> 64	> 64	–
CCOc1ccc(C(=O)Nc2ccc(N3CCCN(C(=O)c4cnccn4)CC3)nc2)cc1 [7b, 4-Ethoxy-N-(6-(4-(pyrazine-2-carbonyl)-1,4-diazepan-1-yl)pyridin-3-yl)benzamide]	> 64	> 64	> 64	–
O=C(Nc1ccc(N2CCN(C(=O)c3cnccn3)CC2)nc1)c1cccc([N+](=O)[O-])c1 [6f, 3-Nitro-N-(6-(4-(pyrazine-2-carbonyl)piperazin-1-yl)pyridin-3-yl)benzamide]	> 64	> 64	> 64	Anti-TB activity against M. tuberculosis H37Ra in words [1]: inactive
O=C(Nc1ccc(N2CCN(C(=O)c3cnccn3)CC2)nc1)c1ccc(Br)cc1Cl [6k, 4-Bromo-2-chloro-N-(6-(4-(pyrazine-2-carbonyl)piperazin-1-yl)pyridin-3-yl)benzamide]	> 64	> 64	1.35	–
O=C(Nc1ccc(N2CCCN(C(=O)c3cnccn3)CC2)nc1)c1ccc(Br)cc1Cl [7i, 4-Bromo-2-chloro-N-(6-(4-(pyrazine-2-carbonyl)-1,4-diazepan-1-yl)pyridin-3-yl)benzamide]	> 64	> 64	> 64	–
NC(=O)c1cnccn1 [PZA, Pyrazinamide]	–	–	–	IC90, anti-mycobacterial activity (MTB): > 20 µg/mL; MIC, anti-mycobacterial activity (MTB): 0.008 µg/mL (≈ 0.065 µM)
O=C(Nc1ccc(N2CCCN(C(=O)c3cnccn3)CC2)nc1)c1ccc(Br)cc1 [7e, 4-Bromo-N-(6-(4-(pyrazine-2-carbonyl)-1,4-diazepan-1-yl)pyridin-3-yl)benzamide]	> 64	> 64	2.12	–
O=C(Nc1ccc(N2CCCN(C(=O)c3cnccn3)CC2)nc1)c1cccc(Br)c1 [7g, 3-Bromo-N-(6-(4-(pyrazine-2-carbonyl)-1,4-diazepan-1-yl)pyridin-3-yl)benzamide]	> 64	> 64	> 64	–
O=C(Nc1ccc(N2CCCN(C(=O)c3cnccn3)CC2)nc1)c1cccc([N+](=O)[O-])c1 [7f, 3-Nitro-N-(6-(4-(pyrazine-2-carbonyl)-1,4-diazepan-1-yl)pyridin-3-yl)benzamide]	> 64	> 64	> 64	–
Cc1ccccc1C(=O)Nc1ccc(N2CCN(C(=O)c3cnccn3)CC2)nc1 [6h, 2-Methyl-N-(6-(4-(pyrazine-2-carbonyl)piperazin-1-yl)pyridin-3-yl)benzamide]	> 64	> 64	1.82	IC90 [1]: 3.85 µM
COc1ccc(C(=O)Nc2ccc(N3CCN(C(=O)c4cnccn4)CC3)nc2)cc1 [6b, 4-Methoxy-N-(6-(4-(pyrazine-2-carbonyl)piperazin-1-yl)pyridin-3-yl)benzamide]	> 64	> 64	> 64	–
O=C(Nc1ccc(N2CCN(C(=O)c3cnccn3)CC2)nc1)c1cccc(Br)c1 [6g, 3-Bromo-N-(6-(4-(pyrazine-2-carbonyl)piperazin-1-yl)pyridin-3-yl)benzamide]	> 64	> 64	> 64	Anti-TB activity against M. tuberculosis H37Ra in words [1]: inactive
O=C(Nc1ccc(N2CCCN(C(=O)c3cnccn3)CC2)nc1)c1ccc(Cl)cc1 [7d, 4-Chloro-N-(6-(4-(pyrazine-2-carbonyl)-1,4-diazepan-1-yl)pyridin-3-yl)benzamide]	> 64	> 64	> 64	–
O=C(Nc1ccc(N2CCN(C(=O)c3cnccn3)CC2)nc1)c1c(Cl)cccc1Br [6j, 2-Bromo-6-chloro-N-(6-(4-(pyrazine-2-carbonyl)piperazin-1-yl)pyridin-3-yl)benzamide]	> 64	> 64	1.82	IC50 [1]: 2.14 µM; IC90 [1]: 3.94 µM
O=C(Nc1ccc(C(F)(F)F)cc1)c1cnccn1 [A, N-(4-(trifluoromethyl)phenyl)pyrazine-2-carboxamide]	–	–	–	MIC, anti-mycobacterial activity (MTB): ≤ 0.002 µg/mL
Cc1ccc(NC(=O)c2cnc(C(C)(C)C)c(Cl)n2)cc1I [D, 5-(tert-Butyl)-6-chloro-N-(3-iodo-4-methylphenyl)pyrazine-2-carboxamide]	–	–	–	IC50, anti-mycobacterial activity (MTB): 0.728 µg/mL (≈ 1.69 µM); IC90, anti-mycobacterial activity (MTB): 0.819 µg/mL (≈ 1.91 µM)
Cc1ccc(NC(=O)c2cnccn2)cc1I [C, N-(3-iodo-4-methylphenyl)pyrazine-2-carboxamide]	–	–	–	MIC, anti-mycobacterial activity (MTB): ≤ 0.002 µg/mL
O=C(Nc1ccc(N2CCN(C(=O)c3cnccn3)CC2)nc1)c1ccc(Br)cc1 [6e, 4-Bromo-N-(6-(4-(pyrazine-2-carbonyl)piperazin-1-yl)pyridin-3-yl)benzamide]	> 64	> 64	2.18	–

Compound	IC50 (Escherichia coli) [µM]	IC50 (Staphylococcus aureus; Staphylococcus aureus) [µM]	IC50 [1, 2] [µM]	further results
O=C(Nc1ccc(N2CCN(C(=O)c3cnccn3)CC2)nc1)c1ccccc1 [6a, N-(6-(4-(Pyrazine-2-carbonyl)piperazin-1-yl)pyridin-3-yl)benzamide]	> 64	> 64	1.46	–
O=C(Nc1ccc(N2CCCN(C(=O)c3cnccn3)CC2)nc1)c1cnccn1 [7k, N-(6-(4-(Pyrazine-2-carbonyl)-1,4-diazepan-1-yl)pyridin-3-yl)pyrazine-2-carboxamide]	> 64	> 64	–	–
O=C(Nc1ccc(N2CCN(C(=O)c3cnccn3)CC2)nc1)c1ccccc1I [6i, 2-Iodo-N-(6-(4-(pyrazine-2-carbonyl)piperazin-1-yl)pyridin-3-yl)benzamide]	> 64	> 64	> 64	–
O=C(Nc1ccc(N2CCCN(C(=O)c3cnccn3)CC2)nc1)c1ccccc1I [7h, 2-Iodo-N-(6-(4-(pyrazine-2-carbonyl)-1,4-diazepan-1-yl)pyridin-3-yl)benzamide]	> 64	> 64	> 64	–
O=C(Nc1ccc(N2CCCN(C(=O)c3cnccn3)CC2)nc1)c1ccncc1 [7l, N-(6-(4-(Pyrazine-2-carbonyl)-1,4-diazepan-1-yl)pyridin-3-yl)isonicotinamide]	> 64	> 64	> 64	–
Cc1cccc(NC(=O)c2cnccn2)c1Br [B, N-(2-bromo-3-methylphenyl)pyrazine-2-carboxamide]	–	–	–	MIC, anti-mycobacterial activity (MTB): ≤ 0.002 µg/mL
C[C@H]1c2cccc(O)c2C(O)=C2C(=O)[C@]3(O)C(O)=C(C(N)=O)C(=O)[C@@H](N(C)C)[C@@H]3[C@@H](O)[C@@H]21 [Doxycyclin, reference compound]	–	–	–	IC50 (Staphylococcus aureus): 0.09 µM
O=C(Nc1ccc(N2CCN(C(=O)c3cnccn3)CC2)nc1)c1ccncc1 [6m, N-(6-(4-(Pyrazine-2-carbonyl)piperazin-1-yl)pyridin-3-yl)isonicotinamide]	> 64	> 64	> 64	Anti-TB activity against M. tuberculosis H37Ra in words [1]: loss of activity
O=C(Nc1ccc(N2CCCN(C(=O)c3cnccn3)CC2)nc1)c1ccc(Cl)cc1Cl [7j, 2,4-Dichloro-N-(6-(4-(pyrazine-2-carbonyl)-1,4-diazepan-1-yl)pyridin-3-yl)benzamide]	> 64	> 64	> 64	–
O=C(Nc1ccc(N2CCN(C(=O)c3cnccn3)CC2)nc1)c1cnccn1 [6n, N-(6-(4-(Pyrazine-2-carbonyl)piperazin-1-yl)pyridin-3-yl)pyrazine-2-carboxamide]	> 64	> 64	> 64	Anti-TB activity against M. tuberculosis H37Ra in words [1]: loss of activity
O=C(Nc1ccc(N2CCN(C(=O)c3cnccn3)CC2)nc1)c1ccc(Cl)cc1Cl [6l, 2,4-Dichloro-N-(6-(4-(pyrazine-2-carbonyl)piperazin-1-yl)pyridin-3-yl)benzamide]	> 64	> 64	> 64	Anti-TB activity against M. tuberculosis H37Ra in words [1]: inactive
CC(C)(C)c1ccc(C(=O)Nc2ccc(N3CCCN(C(=O)c4cnccn4)CC3)nc2)cc1 [7c, 4-(tert-Butyl)-N-(6-(4-(pyrazine-2-carbonyl)-1,4-diazepan-1-yl)pyridin-3-yl)benzamide]	> 64	> 64	> 64	–
O=C(NCCN1CCNCC1)c1cnccn1 [E, N-(2-(piperazin-1-yl)ethyl)pyrazine-2-carboxamide]	–	–	–	MIC against MTB H37Rv (MTB H37Rv): 12.2 µg/mL (≈ 51.9 µM)
O=C(NCCN1CCOCC1)c1cnccn1 [F, N-(2-morpholinoethyl)pyrazine-2-carboxamide]	–	–	–	MIC against MTB H37Rv (MTB H37Rv): 8.0 µg/mL (≈ 33.9 µM)
NNC(=O)c1ccncc1 [Isoniazid, reference compound]	–	–	0.013	–
O=C(Nc1ccc(N2CCCN(C(=O)c3cnccn3)CC2)nc1)c1c(F)cccc1Cl [7m, 2-Chloro-6-fluoro-N-(6-(4-(pyrazine-2-carbonyl)-1,4-diazepan-1-yl)pyridin-3-yl)benzamide]	> 64	> 64	> 64	–
CC(C)(C)c1ccc(C(=O)Nc2ccc(N3CCN(C(=O)c4cnccn4)CC3)nc2)cc1 [6c, 4-(tert-Butyl)-N-(6-(4-(pyrazine-2-carbonyl)piperazin-1-yl)pyridin-3-yl)benzamide]	> 64	> 64	> 64	–
O=C(Nc1ccc(N2CCCN(C(=O)c3cnccn3)CC2)nc1)c1ccccc1 [7a, N-(6-(4-(Pyrazine-2-carbonyl)-1,4-diazepan-1-yl)pyridin-3-yl)benzamide]	> 64	> 64	> 64	–
